US20240425456A1, “DEGRADER” (ASKA PHARMACEUTICAL CO., LTD., priority 2021, published 2024)

Legend:
Format in all cases: cell-based
Tyk2 = target: T1, Tyk2 (Homo sapiens, UniProt P29597); experiment: Degradation-inducing effect on JAK in Jurkat cells (chemiluminescent Western blotting), Tyk2; conditions: 1 μmol/L, 6 hours; for JAK protein ratio of Jurkat cells after treatment of each test compound: Tyk2: corrected by GAPDH, DMSO as 100%
T1 construct: endogenous in cells; host or cells: Jurkat cells
Method: (§1) The degradation-inducing effect of the compound of the present invention on JAK family proteins was evaluated in vitro using Jurkat cells, of which cell line was derived from human leukemic T cells.
(§2) JAK1, JAK2, JAK3, and Tyk2-positive Jurkat cells were seeded at a density of 1×10^5 cells/mL on 10 cm diameter dishes and then cultured in RPMI 1640 medium (FUJIFILM Wako Pure Chemical: catalog number: 189-02025) containing 10% FBS (Thermo Fisher Scientific: catalog number: 10437-028) at 5% CO2 and 37° C. for 3 days. Then, each of the test compounds (compounds of Examples 1 to 11 and Comparative Examples 1 and 2) was added to the dish at a final concentration of 1 μmol/L, and the cells were cultured in the presence of the test compound for 6 hours. After that, the cell culture medium was collected in a 15 mL centrifuge tube (1000 rpm (240× g), room temperature, 5 min), followed by washing with PBS (1000 rpm (240× g), room temperature, 5 min). Then, the cells in the centrifuge tube were collected in a 1.5 mL tube (3000 rpm (860× g), 4° C., 5 min), lysed using RIPA buffer (25 mmol/L Tris-HCl (pH 7.4), 25 mmol/L NaCl, 0.5 mmol/L EGTA (pH 8.0), 0.1% SDS, 1% protease inhibitor), sonicated at ice temperature (cycles of [7.5 sec sonication, 5 sec off] for 5 min) and subjected to centrifugation (15000 rpm (21600× g), 4° C., 30 min). The thus-obtained supernatant was used as the protein solution. Using the BCA protein assay kit (Thermo Fisher Scientific: catalog number: 23225), the protein concentration of the protein solution of each test compound was measured according to the kit instructions, and then adjusted to 1.4 mg/mL with RIPA buffer. The thus-adjusted protein solutions were subjected to a fully automated Western blotting device (Simple Westerns Wes: proteinSimple) to detect the protein levels (JAK1, JAK2, JAK3, and Tyk2 as the target proteins, and GAPDH (Glyceraldehyde 3-phosphate dehydrogenase) as the internal standard protein) in the protein solutions by chemiluminescent Western blotting.
(§3) Furthermore, the luminescence levels of JAK1, JAK2, JAK3, and Tyk2 detected by chemiluminescent Western blotting were quantified numerically by using an analysis software (Compass software for Simple Western (version 4.0.0)) attached to the fully automated Western blotting device. The numerical values of the quantified luminescence levels were corrected by the protein levels of the internal standard protein, i.e., GAPDH, (target protein levels/GAPDH protein levels), and compared among the test compounds with dimethyl sulfoxide (DMSO) as 100%.

JAK2 = target: T2, JAK2 (Homo sapiens, UniProt O60674); experiment: Degradation-inducing effect on JAK in Jurkat cells (chemiluminescent Western blotting), JAK2; conditions: 1 μmol/L, 6 hours, corrected by GAPDH, DMSO as 100%
T2 construct: endogenous in cells; host or cells: Jurkat cells
Method: as §1, §2, §3

JAK3 = target: T3, JAK3 (Homo sapiens, UniProt P52333); experiment: Degradation-inducing effect on JAK in Jurkat cells (chemiluminescent Western blotting), JAK3; conditions: 1 μmol/L, 6 hours, corrected by GAPDH, DMSO as 100%, read-out: JAK protein ratio of Jurkat cells after treatment of each test compound: JAK3
T3 construct: endogenous in cells; host or cells: Jurkat cells
T3 sequence (P52333 1-1124): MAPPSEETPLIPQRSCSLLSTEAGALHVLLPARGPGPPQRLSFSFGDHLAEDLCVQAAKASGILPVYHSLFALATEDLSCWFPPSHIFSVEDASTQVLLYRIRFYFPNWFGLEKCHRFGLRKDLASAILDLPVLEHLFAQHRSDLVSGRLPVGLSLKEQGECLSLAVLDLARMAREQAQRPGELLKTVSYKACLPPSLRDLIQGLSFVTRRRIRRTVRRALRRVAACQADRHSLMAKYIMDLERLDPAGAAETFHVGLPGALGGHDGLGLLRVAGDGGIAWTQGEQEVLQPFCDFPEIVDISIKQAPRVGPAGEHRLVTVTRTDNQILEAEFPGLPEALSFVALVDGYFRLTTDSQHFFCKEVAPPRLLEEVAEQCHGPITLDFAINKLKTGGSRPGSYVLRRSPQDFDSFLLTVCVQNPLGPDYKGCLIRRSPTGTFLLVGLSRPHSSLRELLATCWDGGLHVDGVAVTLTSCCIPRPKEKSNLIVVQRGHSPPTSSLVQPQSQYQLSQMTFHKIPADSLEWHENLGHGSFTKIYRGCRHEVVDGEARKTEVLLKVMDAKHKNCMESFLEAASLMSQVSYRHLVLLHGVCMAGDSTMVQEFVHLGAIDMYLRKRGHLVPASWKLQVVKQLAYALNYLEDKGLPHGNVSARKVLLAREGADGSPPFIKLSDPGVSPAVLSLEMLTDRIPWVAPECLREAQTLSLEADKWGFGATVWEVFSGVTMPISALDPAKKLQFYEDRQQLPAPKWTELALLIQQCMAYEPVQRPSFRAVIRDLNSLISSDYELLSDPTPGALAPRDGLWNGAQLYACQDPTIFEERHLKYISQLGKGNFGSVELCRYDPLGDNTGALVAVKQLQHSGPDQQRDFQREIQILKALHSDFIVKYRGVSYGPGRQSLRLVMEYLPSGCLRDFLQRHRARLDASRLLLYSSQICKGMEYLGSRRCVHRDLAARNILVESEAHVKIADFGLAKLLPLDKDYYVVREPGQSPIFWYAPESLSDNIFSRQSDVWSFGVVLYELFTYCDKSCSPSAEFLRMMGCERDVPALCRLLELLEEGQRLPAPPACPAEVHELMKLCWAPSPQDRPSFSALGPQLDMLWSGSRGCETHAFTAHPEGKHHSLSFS
Method: as §1, §2, §3

JAK1 = target: T4, JAK1 (Homo sapiens, UniProt P23458); experiment: Degradation-inducing effect on JAK in Jurkat cells (chemiluminescent Western blotting), JAK1; conditions: 1 μmol/L, 6 hours, corrected by GAPDH, DMSO as 100%
T4 construct: endogenous in cells; host or cells: Jurkat cells
Method: as §1, §2, §3

T4 sequence (P23458 whole entry): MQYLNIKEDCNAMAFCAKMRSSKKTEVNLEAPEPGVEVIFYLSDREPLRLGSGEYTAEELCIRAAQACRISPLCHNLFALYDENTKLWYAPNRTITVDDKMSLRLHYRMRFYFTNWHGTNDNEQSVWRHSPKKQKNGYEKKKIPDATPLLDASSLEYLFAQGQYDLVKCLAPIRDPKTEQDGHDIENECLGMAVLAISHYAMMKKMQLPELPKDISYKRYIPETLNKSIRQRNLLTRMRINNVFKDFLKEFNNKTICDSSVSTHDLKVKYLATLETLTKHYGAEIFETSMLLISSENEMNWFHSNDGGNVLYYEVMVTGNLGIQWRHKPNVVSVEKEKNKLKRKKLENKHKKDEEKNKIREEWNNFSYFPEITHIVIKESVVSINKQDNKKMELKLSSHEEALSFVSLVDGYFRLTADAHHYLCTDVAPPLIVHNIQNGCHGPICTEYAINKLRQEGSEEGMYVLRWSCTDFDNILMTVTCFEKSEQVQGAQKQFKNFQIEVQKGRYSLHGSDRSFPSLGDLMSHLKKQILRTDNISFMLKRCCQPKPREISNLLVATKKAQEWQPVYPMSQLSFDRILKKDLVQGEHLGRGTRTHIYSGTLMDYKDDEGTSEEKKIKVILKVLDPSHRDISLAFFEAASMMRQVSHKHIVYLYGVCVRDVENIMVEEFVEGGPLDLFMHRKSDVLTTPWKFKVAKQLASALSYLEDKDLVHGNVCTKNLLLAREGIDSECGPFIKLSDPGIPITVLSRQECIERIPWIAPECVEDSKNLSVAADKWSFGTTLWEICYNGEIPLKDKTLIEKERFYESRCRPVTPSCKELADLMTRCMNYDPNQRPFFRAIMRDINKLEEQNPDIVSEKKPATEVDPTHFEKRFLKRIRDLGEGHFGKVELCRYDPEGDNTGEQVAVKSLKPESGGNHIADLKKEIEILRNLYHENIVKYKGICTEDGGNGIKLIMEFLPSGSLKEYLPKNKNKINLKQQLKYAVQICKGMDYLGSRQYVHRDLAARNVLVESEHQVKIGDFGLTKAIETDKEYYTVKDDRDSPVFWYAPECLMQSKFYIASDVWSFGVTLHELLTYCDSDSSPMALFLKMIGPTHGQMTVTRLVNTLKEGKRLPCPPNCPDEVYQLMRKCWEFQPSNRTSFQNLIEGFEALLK
T1 sequence (P29597 whole entry): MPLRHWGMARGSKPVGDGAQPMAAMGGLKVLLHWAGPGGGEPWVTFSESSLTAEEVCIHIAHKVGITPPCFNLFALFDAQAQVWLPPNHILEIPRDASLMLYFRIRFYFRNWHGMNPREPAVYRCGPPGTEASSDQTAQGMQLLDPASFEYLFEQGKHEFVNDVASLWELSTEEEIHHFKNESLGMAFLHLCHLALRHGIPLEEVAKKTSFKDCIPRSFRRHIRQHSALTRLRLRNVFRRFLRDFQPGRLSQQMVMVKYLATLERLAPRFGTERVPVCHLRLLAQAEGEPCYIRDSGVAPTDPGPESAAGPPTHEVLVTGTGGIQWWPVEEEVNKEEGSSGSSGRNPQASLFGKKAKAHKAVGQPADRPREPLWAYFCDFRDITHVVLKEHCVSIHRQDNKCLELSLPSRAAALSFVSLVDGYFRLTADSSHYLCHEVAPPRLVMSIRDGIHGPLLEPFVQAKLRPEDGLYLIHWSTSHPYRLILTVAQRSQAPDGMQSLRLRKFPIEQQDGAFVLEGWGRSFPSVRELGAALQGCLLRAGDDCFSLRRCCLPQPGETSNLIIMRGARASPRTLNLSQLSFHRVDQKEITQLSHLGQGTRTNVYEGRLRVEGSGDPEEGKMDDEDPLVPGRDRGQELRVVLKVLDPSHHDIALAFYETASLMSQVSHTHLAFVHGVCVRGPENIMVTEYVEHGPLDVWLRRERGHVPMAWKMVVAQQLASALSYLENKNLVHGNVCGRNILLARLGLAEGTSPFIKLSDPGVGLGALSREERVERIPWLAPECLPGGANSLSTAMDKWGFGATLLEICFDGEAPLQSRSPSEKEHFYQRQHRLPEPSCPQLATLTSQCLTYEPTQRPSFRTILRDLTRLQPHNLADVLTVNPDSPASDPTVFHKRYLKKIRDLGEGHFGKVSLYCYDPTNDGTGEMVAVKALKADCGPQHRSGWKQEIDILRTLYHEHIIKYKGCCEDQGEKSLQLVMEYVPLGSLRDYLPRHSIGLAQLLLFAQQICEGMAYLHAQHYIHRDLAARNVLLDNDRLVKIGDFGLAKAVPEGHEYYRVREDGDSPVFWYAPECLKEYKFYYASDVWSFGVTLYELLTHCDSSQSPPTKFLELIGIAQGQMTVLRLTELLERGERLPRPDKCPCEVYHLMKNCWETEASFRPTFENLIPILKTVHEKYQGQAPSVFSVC
T2 sequence (O60674 whole entry): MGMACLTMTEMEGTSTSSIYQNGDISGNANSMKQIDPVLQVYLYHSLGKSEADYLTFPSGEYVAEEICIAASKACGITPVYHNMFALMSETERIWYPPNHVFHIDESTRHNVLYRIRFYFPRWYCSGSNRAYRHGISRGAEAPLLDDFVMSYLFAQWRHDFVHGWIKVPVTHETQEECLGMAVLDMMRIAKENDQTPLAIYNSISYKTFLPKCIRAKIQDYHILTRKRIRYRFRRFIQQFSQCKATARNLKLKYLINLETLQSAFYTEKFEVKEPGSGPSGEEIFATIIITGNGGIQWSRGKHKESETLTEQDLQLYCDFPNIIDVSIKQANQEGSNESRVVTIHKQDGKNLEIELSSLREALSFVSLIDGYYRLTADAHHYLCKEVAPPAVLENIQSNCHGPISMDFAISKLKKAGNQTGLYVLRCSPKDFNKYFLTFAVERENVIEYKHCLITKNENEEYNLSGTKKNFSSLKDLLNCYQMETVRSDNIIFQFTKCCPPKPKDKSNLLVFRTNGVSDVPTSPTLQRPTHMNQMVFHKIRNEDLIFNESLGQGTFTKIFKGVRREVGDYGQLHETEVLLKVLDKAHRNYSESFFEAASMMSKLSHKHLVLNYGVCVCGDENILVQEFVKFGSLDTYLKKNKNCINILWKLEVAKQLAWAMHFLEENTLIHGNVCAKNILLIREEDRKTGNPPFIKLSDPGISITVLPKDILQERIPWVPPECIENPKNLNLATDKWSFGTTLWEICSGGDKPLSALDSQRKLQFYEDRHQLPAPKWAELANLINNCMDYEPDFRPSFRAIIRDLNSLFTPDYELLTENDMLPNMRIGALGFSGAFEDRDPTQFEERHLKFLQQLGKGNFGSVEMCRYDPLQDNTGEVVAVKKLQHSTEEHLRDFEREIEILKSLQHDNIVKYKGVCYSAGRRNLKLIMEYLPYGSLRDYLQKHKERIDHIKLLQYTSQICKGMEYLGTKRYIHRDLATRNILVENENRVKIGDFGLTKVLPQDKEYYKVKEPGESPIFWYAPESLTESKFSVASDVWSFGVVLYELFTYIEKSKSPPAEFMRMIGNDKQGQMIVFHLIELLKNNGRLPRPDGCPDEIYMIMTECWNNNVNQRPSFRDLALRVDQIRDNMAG

CNC(=O)c1cnc(Nc2ccc(F)cn2)cc1Nc1cccc(C(=O)NCCCCCCCCCC(=O)N[C@H](C(=O)N2C[C@H](O)C[C@H]2C(=O)NCc2ccc(-c3scnc3C)cc2)C(C)(C)C)c1OC [Comparative Example 1, 6-((5-Fluoropyridin-2-yl)amino)-4-((3-((10-(((S)-1-((2S,4R)-4-hydroxy 2-((4-(4-methylthiazol-5-yl)benzyl)carbamoyl)pyrrolidin-1-yl)-3,3-dimethyl-1-oxobutan-2-yl)amino)-10-oxodecyl)carbamoyl)-2-methoxyphenyl)amino)-N-methylnicotinamide, reference compound]
protein level of Tyk2 (in words) (Tyk2): not reduced | JAK protein ratio of Jurkat cells after treatment of each test compound: Tyk2 (Tyk2): 78.9% | JAK protein ratio of Jurkat cells after treatment of each test compound: JAK2 (JAK2): 87.6% | JAK3 protein level relative to DMSO at 1 µM (JAK3): 83.3% | JAK protein ratio of Jurkat cells after treatment of each test compound: JAK1 (JAK1): 92.4%

CNC(=O)c1cnc(Nc2ccc(C(=O)NCCCCCCCCC(=O)N[C@H](C(=O)N3C[C@H](O)C[C@H]3C(=O)NCc3ccc(-c4scnc4C)cc3)C(C)(C)C)cn2)cc1Nc1cccc(C(=O)NC)c1OC [Example 4, 6-((5-((9-(((S)-1-((2S,4R)-4-Hydroxy-2-((4-(4-methylthiazol-5-yl)benzyl)carbamoyl)pyrrolidin-1-yl)-3,3-dimethyl-1-oxobutan-2-yl)amino)-9-oxononyl)carbamoyl)pyridin-2-yl)amino)-4-((2-methoxy-3-(methylcarbamoyl)phenyl)amino)-N-methylnicotinamide]
JAK protein ratio of Jurkat cells after treatment of each test compound: Tyk2 (Tyk2): 41.7% | JAK protein ratio of Jurkat cells after treatment of each test compound: JAK2 (JAK2): 158.8% | JAK3 protein level relative to DMSO at 1 µM (JAK3): 129% | JAK protein ratio of Jurkat cells after treatment of each test compound: JAK1 (JAK1): 129.1%

CNC(=O)c1cnc(Nc2ccc(C(=O)NCCCCCCCCCC(=O)N[C@H](C(=O)N3C[C@H](O)C[C@H]3C(=O)NCc3ccc(-c4scnc4C)cc3)C(C)(C)C)cn2)cc1Nc1cccc(-c2ncn(C)n2)c1OC [Example 10, 6-((5-((10-(((S)-1-((2S,4R)-4-hydroxy-2-((4-(4-methylthiazol-5-yl)benzyl)carbamoyl)pyrrolidin-1-yl)-3,3-dimethyl-1-oxobutan-2-yl)amino)-10-oxodecyl)carbamoyl)pyridin-2-yl)amino)-4-((2-methoxy-3-(1-methyl-^1H-1,2,4-triazol-3-yl)phenyl)amino)-N-methylnicotinamide]
JAK protein ratio of Jurkat cells after treatment of each test compound: Tyk2 (Tyk2): 31.2% | JAK protein ratio of Jurkat cells after treatment of each test compound: JAK2 (JAK2): 114.1% | JAK3 protein level relative to DMSO at 1 µM (JAK3): 111% | JAK protein ratio of Jurkat cells after treatment of each test compound: JAK1 (JAK1): 90.5%

CNC(=O)c1cnc(Nc2ccc(C(=O)NCCCCCCCCCC(=O)N[C@H](C(=O)N3C[C@@H](O)C[C@H]3C(=O)NCc3ccc(-c4scnc4C)cc3)C(C)(C)C)cn2)cc1Nc1cccc(C(=O)NC)c1OC [Example 8, 6-((5-((10-(((S)-1-((2S,4S)-4-Hydroxy-2-((4-(4-methylthiazol-5-yl)benzyl)carbamoyl)pyrrolidin-1-yl)-3,3-dimethyl-1-oxobutan-2-yl)amino)-10-oxodecyl)carbamoyl)pyridin-2-yl)amino)-4-((2-methoxy-3-(methylcarbamoyl)phenyl)amino)-N-methylnicotinamide]
protein level of Tyk2 (in words) (Tyk2): not reduced | JAK protein ratio of Jurkat cells after treatment of each test compound: Tyk2 (Tyk2): 97.0% | JAK protein ratio of Jurkat cells after treatment of each test compound: JAK2 (JAK2): 122.5% | JAK3 protein level relative to DMSO at 1 µM (JAK3): 99% | JAK protein ratio of Jurkat cells after treatment of each test compound: JAK1 (JAK1): 102.6%

CNC(=O)c1cnc(Nc2ccc(C(=O)NCCCCCCCCCC(=O)N[C@H](C(=O)N3C[C@H](O)C[C@H]3C(=O)NCc3ccc(-c4scnc4C)cc3)C(C)(C)C)cn2)cc1Nc1cccc(C(=O)NC)c1OC [Example 5, 6-((5-((10-(((S)-1-((2S,4R)-4-Hydroxy-2-((4-(4-methylthiazol-5-yl)benzyl)carbamoyl)pyrrolidin-1-yl)-3,3-dimethyl-1-oxobutan-2-yl)amino)-10-oxodecyl)carbamoyl)pyridin-2-yl)amino)-4-((2-methoxy-3-(methylcarbamoyl)phenyl)amino)-N-methylnicotinamide]
JAK protein ratio of Jurkat cells after treatment of each test compound: Tyk2 (Tyk2): 23.1% | JAK protein ratio of Jurkat cells after treatment of each test compound: JAK2 (JAK2): 121.0% | JAK3 protein level relative to DMSO at 1 µM (JAK3): 112% | JAK protein ratio of Jurkat cells after treatment of each test compound: JAK1 (JAK1): 122.8%
